# Experimental data taken from ChEMBL document CHEMBL1201861, “Genomics of Drug Sensitity in Cancer screening data, Wellcome Trust Sanger Institute”.
# pIC50: −log10 of the molar value.
# Columns and labels:
# Assay in all cases: cells
# Settings in all cases: Homo sapiens
# SCC-9 = format: functional, cell-based;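 note: Read-out is a cell viability assay, with values giving inhibition of cell growth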
# Description: SANGER: Inhibition of human SCC-9 cell growth in a cell viability assay.
# C3A = format: functional, cell-based;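 note: growth inhibition of C3A human cells, quantified with a cell viability readout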
# Description: SANGER: Inhibition of human C3A cell growth in a cell viability assay.
# SNU-449 = format: functional, cell-based
# Description: SANGER: Inhibition of human SNU-449 cell growth in a cell viability assay.
# UO-31 = format: functional, cell-based;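 note: cell viability assay measuring inhibition of cell growth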
# Description: SANGER: Inhibition of human U031 cell growth in a cell viability assay.
# COLO-678 = format: functional, cell-based
# Description: SANGER: Inhibition of human COLO-678 cell growth in a cell viability assay.
# BHT-101 = format: functional, cell-based
# Description: SANGER: Inhibition of human BHT-101 cell growth in a cell viability assay.
# IGROV-1 = format: functional, cell-based;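 note: reduction of IGROV-1 cell growth, read out with a viability assay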
# Description: SANGER: Inhibition of human IGROV-1 cell growth in a cell viability assay.
# HSC-3 = format: functional, cell-based
# Description: SANGER: Inhibition of human HSC-3 cell growth in a cell viability assay.
# HCC70 = format: functional, cell-based;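 note: cell viability assay measuring how strongly the compound suppresses proliferation of HCC70 cells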
# Description: SANGER: Inhibition of human HCC70 cell growth in a cell viability assay.
# SW780 = format: functional, cell-based;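 note: growth inhibition of the cells, read out with a cell viability assay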
# Description: SANGER: Inhibition of human SW780 cell growth in a cell viability assay.
# HuP-T3 = format: functional, cell-based;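 note: HuP-T3 cell growth inhibition, read out with a cell viability assay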
# Description: SANGER: Inhibition of human HuP-T3 cell growth in a cell viability assay.
# DK-MG = format: functional, cell-based;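 note: growth inhibition of DK-MG cells, read out with a cell viability assay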
# Description: SANGER: Inhibition of human DK-MG cell growth in a cell viability assay.
# CAPAN-1 = format: functional, cell-based;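 note: growth suppression of CAPAN-1 cells, read out by a cell viability assay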
# Description: SANGER: Inhibition of human CAPAN-1 cell growth in a cell viability assay.
# A 172 = format: functional, cell-based;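 note: growth inhibition of A172 cells, measured with a cell viability readout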
# Description: SANGER: Inhibition of human A172 cell growth in a cell viability assay.
# 639-V = format: functional, cell-based;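 note: growth inhibition of 639-V cells, read out with a cell viability assay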
# Description: SANGER: Inhibition of human 639-V cell growth in a cell viability assay.
# Daoy = format: functional, cell-based;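 note: daoy cell growth inhibition, read out as cell viability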
# Description: SANGER: Inhibition of human Daoy cell growth in a cell viability assay.
# HCT-116 = format: functional, cell-based
# Description: SANGER: Inhibition of human HCT-116 cell growth in a cell viability assay.
# FTC-133 = format: functional, cell-based
# HN = format: functional, cell-based
# Description: SANGER: Inhibition of human HN cell growth in a cell viability assay.
# U2OS = format: functional, cell-based, U-2-OS;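 note: growth inhibition of human U-2-OS cells, determined with a cell viability assay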
# Description: SANGER: Inhibition of human U-2-OS cell growth in a cell viability assay.
# HT-29 = format: functional, cell-based;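 note: growth inhibition of human HT-29 cells, read out by a cell viability assay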
# Description: SANGER: Inhibition of human HT-29 cell growth in a cell viability assay.
# HuCCT-1 = format: functional, cell-based, HuCCT1;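 note: growth inhibition of HuCCT-1 cells, read out by a cell viability assay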
# Description: SANGER: Inhibition of human HuCCT1 cell growth in a cell viability assay.
# CHP-212 = format: functional, cell-based
# Description: SANGER: Inhibition of human CHP-212 cell growth in a cell viability assay.
# CAL-54 = format: functional, cell-based;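 note: growth inhibition of CAL-54 cells, read out by a viability measurement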
# Description: SANGER: Inhibition of human CAL-54 cell growth in a cell viability assay.
# HTC-C3 = format: functional, cell-based;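 note: inhibition of cell growth, read out with a cell viability assay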
# Description: SANGER: Inhibition of human HTC-C3 cell growth in a cell viability assay.
# DU-145 = format: functional, cell-based
# Description: SANGER: Inhibition of human DU-145 cell growth in a cell viability assay.
# CAL-33 = format: functional, cell-based;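 note: growth inhibition of CAL-33 cells, read out with a cell viability assay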
# Description: SANGER: Inhibition of human CAL-33 cell growth in a cell viability assay.
# D-336MG = format: functional, cell-based
# Description: SANGER: Inhibition of human D-336MG cell growth in a cell viability assay.
# 23132-87 = format: functional, cell-based
# Description: SANGER: Inhibition of human 23132-87 cell growth in a cell viability assay.
# NCI-H2087 = format: functional, cell-based;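 note: growth inhibition determined with a cell viability readout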
# Description: SANGER: Inhibition of human NCI-H2087 cell growth in a cell viability assay.
# NCI-H460 = format: functional, cell-based;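 note: cell viability assay scoring growth inhibition of human NCI-H460 cells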
# Description: SANGER: Inhibition of human NCI-H460 cell growth in a cell viability assay.
# GMS-10 = format: functional, cell-based;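 note: growth inhibition of GMS-10 cells, read out as cell viability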
# Description: SANGER: Inhibition of human GMS-10 cell growth in a cell viability assay.
# HT-1376 = format: functional, cell-based
# Description: SANGER: Inhibition of human HT-1376 cell growth in a cell viability assay.
# CAMA-1 = format: functional, cell-based;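 note: growth inhibition of CAMA-1 cells, read out with a cell viability assay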
# Description: SANGER: Inhibition of human CAMA-1 cell growth in a cell viability assay.
# NCI-H1573 = format: functional, cell-based;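 note: growth inhibition of NCI-H1573 cells, read out with a cell viability assay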
# Description: SANGER: Inhibition of human NCI-H1573 cell growth in a cell viability assay.
# BFTC-905 = format: functional, cell-based
# Description: SANGER: Inhibition of human BFTC-905 cell growth in a cell viability assay.
# SK-MEL3 = format: functional, cell-based, SK-MEL-3;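 note: growth inhibition of human SK-MEL-3 cells, read out with a cell viability assay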
# Description: SANGER: Inhibition of human SK-MEL-3 cell growth in a cell viability assay.
# MHH-ES-1 = format: functional, cell-based;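 note: cell growth inhibition measured by a cell viability assay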
# Description: SANGER: Inhibition of human MHH-ES-1 cell growth in a cell viability assay.
# Detroit 562 = format: functional, cell-based;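 note: growth inhibition of human Detroit 562 cells, read out by a cell viability assay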
# Description: SANGER: Inhibition of human Detroit562 cell growth in a cell viability assay.
# CAL-85-1 = format: functional, cell-based;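 note: growth inhibition of human CAL-85-1 cells, read out with a cell viability assay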
# Description: SANGER: Inhibition of human CAL-85-1 cell growth in a cell viability assay.
# KP-N-YN = format: functional, cell-based;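 note: growth inhibition of KP-N-YN cells, read out with a cell viability assay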
# Description: SANGER: Inhibition of human KP-N-YN cell growth in a cell viability assay.
# GP5d = format: functional, cell-based;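 note: growth inhibition of human GP5d cells, read out with a cell viability assay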
# Description: SANGER: Inhibition of human GP5d cell growth in a cell viability assay.
# G-402 = format: functional, cell-based
# Description: SANGER: Inhibition of human G-402 cell growth in a cell viability assay.
# RPMI-7951 = format: functional, cell-based
# Description: SANGER: Inhibition of human RPMI-7951 cell growth in a cell viability assay.
# SAS = format: functional, cell-based;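 note: growth inhibition of SAS cells, read out with a cell viability assay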
# Description: SANGER: Inhibition of human SAS cell growth in a cell viability assay.
# MeWo = format: functional, cell-based;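 note: growth inhibition of MeWo cells, determined by a cell viability readout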
# Description: SANGER: Inhibition of human Mewo cell growth in a cell viability assay.
# VMRC-RCZ = format: functional, cell-based;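 note: growth inhibition measured with a cell viability assay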
# Description: SANGER: Inhibition of human VMRC-RCZ cell growth in a cell viability assay.
# HEC-1 = format: functional, cell-based;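 note: growth inhibition of the cell line, read out with a cell viability assay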
# Description: SANGER: Inhibition of human HEC-1 cell growth in a cell viability assay.
# NCI-H441 = format: functional, cell-based;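 note: growth inhibition of NCI-H441 cells, read out with a cell viability assay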
# Description: SANGER: Inhibition of human NCI-H441 cell growth in a cell viability assay.
# TYK-nu = format: functional, cell-based;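 note: growth inhibition of human TYK-nu cells, read out by a cell viability assay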
# Description: SANGER: Inhibition of human TYK-nu cell growth in a cell viability assay.
# T-24 = format: functional, cell-based;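 note: growth inhibition of T-24 cells, read out with a cell viability assay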
# Description: SANGER: Inhibition of human T-24 cell growth in a cell viability assay.
# MEL-HO = format: functional, cell-based
# Description: SANGER: Inhibition of human MEL-HO cell growth in a cell viability assay.
# MOLT-13 = format: functional, cell-based;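 note: IC50 for suppression of MOLT-13 cell growth, read out with a cell viability assay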
# Description: SANGER: Inhibition of human MOLT-13 cell growth in a cell viability assay.
# MDA-MB-415 = format: functional, cell-based
# Panc1005 = format: functional, cell-based;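 note: growth inhibition of human PANC-10-05 cells, measured by a cell viability assay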
# Description: SANGER: Inhibition of human PANC-10-05 cell growth in a cell viability assay.
smiles,measurement,setting,value
CC[C@]1(O)C[C@@H]2CN(CCc3c([nH]c4ccccc34)[C@@](C(=O)OC)(c3cc4c(cc3OC)N(C)[C@H]3[C@@](O)(C(=O)OC)[C@H](OC(C)=O)[C@]5(CC)C=CCN6CC[C@]43[C@@H]65)C2)C1 [VINBLASTINE],pIC50,SCC-9,7.97
same,pIC50,C3A,< 7.00
same,pIC50,SNU-449,< 7.00
same,pIC50,UO-31,7.86
same,pIC50,COLO-678,< 7.00
same,pIC50,BHT-101,7.50
same,pIC50,IGROV-1,< 7.00
same,pIC50,HSC-3,8.36
same,pIC50,HCC70,7.68
same,pIC50,SW780,8.63
same,pIC50,HuP-T3,7.75
same,pIC50,DK-MG,8.18
same,pIC50,CAPAN-1,7.28
same,pIC50,A 172,8.02
same,pIC50,639-V,8.25
same,pIC50,Daoy,8.51
same,pIC50,HCT-116,8.44
same,pIC50,FTC-133,8.07
same,pIC50,HN,8.38
same,pIC50,U2OS,7.59
same,pIC50,HT-29,7.34
same,pIC50,HuCCT-1,7.76
same,pIC50,CHP-212,8.45
same,pIC50,CAL-54,7.22
same,pIC50,HTC-C3,7.98
same,pIC50,DU-145,7.01
same,pIC50,CAL-33,8.21
same,pIC50,D-336MG,8.14
same,pIC50,23132-87,7.69
same,pIC50,NCI-H2087,7.52
same,pIC50,NCI-H460,7.33
same,pIC50,GMS-10,7.95
same,pIC50,HT-1376,7.22
same,pIC50,CAMA-1,7.49
same,pIC50,NCI-H1573,7.51
same,pIC50,BFTC-905,8.42
same,pIC50,SK-MEL3,< 7.00
same,pIC50,MHH-ES-1,8.29
same,pIC50,Detroit 562,8.26
same,pIC50,CAL-85-1,< 7.00
same,pIC50,KP-N-YN,7.33
same,pIC50,GP5d,8.33
same,pIC50,G-402,7.76
same,pIC50,RPMI-7951,8.78
same,pIC50,SAS,7.55
same,pIC50,MeWo,8.04
same,pIC50,VMRC-RCZ,7.72
same,pIC50,HEC-1,7.94
same,pIC50,NCI-H441,< 7.00
same,pIC50,TYK-nu,7.92
same,pIC50,T-24,8.29
same,pIC50,MEL-HO,7.27
same,pIC50,MOLT-13,8.25
same,pIC50,MDA-MB-415,7.73
same,pIC50,Panc1005,7.37
C[C@]1(c2nc3c(C(N)=O)cccc3[nH]2)CCCN1 [VELIPARIB],pIC50,SCC-9,< 5.30
same,pIC50,C3A,< 5.30
same,pIC50,SNU-449,< 5.30
same,pIC50,UO-31,< 5.30
same,pIC50,COLO-678,< 5.30
same,pIC50,BHT-101,< 5.30
same,pIC50,IGROV-1,< 5.30
same,pIC50,HSC-3,< 5.30
same,pIC50,HCC70,< 5.30
same,pIC50,SW780,< 5.30
same,pIC50,HuP-T3,< 5.30
same,pIC50,DK-MG,< 5.30
same,pIC50,CAPAN-1,< 5.30
same,pIC50,A 172,< 5.30
same,pIC50,639-V,< 5.30
same,pIC50,Daoy,< 5.30
same,pIC50,HCT-116,< 5.30
same,pIC50,FTC-133,< 5.30
same,pIC50,HN,< 5.30
same,pIC50,U2OS,< 5.30
same,pIC50,HT-29,< 5.30
same,pIC50,HuCCT-1,< 5.30
same,pIC50,CHP-212,< 5.30
same,pIC50,CAL-54,< 5.30
same,pIC50,HTC-C3,< 5.30
same,pIC50,DU-145,< 5.30
same,pIC50,CAL-33,< 5.30
same,pIC50,D-336MG,< 5.30
same,pIC50,23132-87,< 5.30
same,pIC50,NCI-H2087,< 5.30
same,pIC50,NCI-H460,< 5.30
same,pIC50,GMS-10,< 5.30
same,pIC50,HT-1376,< 5.30
same,pIC50,CAMA-1,< 5.30
same,pIC50,NCI-H1573,< 5.30
same,pIC50,BFTC-905,< 5.30
same,pIC50,SK-MEL3,< 5.30
same,pIC50,MHH-ES-1,< 5.30
same,pIC50,Detroit 562,< 5.30
same,pIC50,CAL-85-1,< 5.30
same,pIC50,KP-N-YN,< 5.30
same,pIC50,GP5d,< 5.30
same,pIC50,G-402,< 5.30
same,pIC50,RPMI-7951,< 5.30
same,pIC50,SAS,< 5.30
same,pIC50,MeWo,< 5.30
same,pIC50,VMRC-RCZ,< 5.30
same,pIC50,HEC-1,< 5.30
same,pIC50,NCI-H441,< 5.30
same,pIC50,TYK-nu,< 5.30
same,pIC50,T-24,< 5.30
same,pIC50,MEL-HO,< 5.30
same,pIC50,MOLT-13,< 5.30
same,pIC50,MDA-MB-415,< 5.30
same,pIC50,Panc1005,< 5.30
CCCS(=O)(=O)Nc1ccc(F)c(C(=O)c2c[nH]c3ncc(Cl)cc23)c1F [PLX-4720],pIC50,SCC-9,< 5.00
same,pIC50,C3A,< 5.00
same,pIC50,SNU-449,< 5.00
same,pIC50,UO-31,< 5.00
same,pIC50,COLO-678,< 5.00
same,pIC50,BHT-101,6.15
same,pIC50,IGROV-1,< 5.00
same,pIC50,HSC-3,5.09
same,pIC50,HCC70,< 5.00
same,pIC50,SW780,< 5.00
same,pIC50,HuP-T3,< 5.00
same,pIC50,DK-MG,< 5.00
same,pIC50,CAPAN-1,< 5.00
same,pIC50,A 172,< 5.00
same,pIC50,639-V,< 5.00
same,pIC50,Daoy,< 5.00
same,pIC50,HCT-116,< 5.00
same,pIC50,FTC-133,< 5.00
same,pIC50,HN,< 5.00
same,pIC50,U2OS,< 5.00
same,pIC50,HT-29,< 5.00
same,pIC50,HuCCT-1,< 5.00
same,pIC50,CHP-212,< 5.00
same,pIC50,CAL-54,< 5.00
same,pIC50,HTC-C3,5.78
same,pIC50,DU-145,< 5.00
same,pIC50,CAL-33,< 5.00
same,pIC50,D-336MG,< 5.00
same,pIC50,23132-87,< 5.00
same,pIC50,NCI-H2087,< 5.00
same,pIC50,NCI-H460,< 5.00
same,pIC50,GMS-10,< 5.00
same,pIC50,HT-1376,< 5.00
same,pIC50,CAMA-1,< 5.00
same,pIC50,NCI-H1573,< 5.00
same,pIC50,BFTC-905,< 5.00
same,pIC50,SK-MEL3,6.29
same,pIC50,MHH-ES-1,< 5.00
same,pIC50,Detroit 562,< 5.00
same,pIC50,CAL-85-1,< 5.00
same,pIC50,KP-N-YN,< 5.00
same,pIC50,GP5d,< 5.00
same,pIC50,G-402,< 5.00
same,pIC50,RPMI-7951,5.24
same,pIC50,SAS,< 5.00
same,pIC50,MeWo,< 5.00
same,pIC50,VMRC-RCZ,< 5.00
same,pIC50,HEC-1,< 5.00
same,pIC50,NCI-H441,< 5.00
same,pIC50,TYK-nu,< 5.00
same,pIC50,T-24,< 5.00
same,pIC50,MEL-HO,6.39
same,pIC50,MOLT-13,< 5.00
same,pIC50,MDA-MB-415,< 5.00
same,pIC50,Panc1005,< 5.00
